According to patent US20200017496A1 (priority 2017, published 2020):
Like-named read-outs stand apart in the source and are kept apart here.

Experiments:
Type in all cases: cell-based
[1] = system: Proteus mirabilis (PMI) isolates; experiment: microbe, parasite or virus in culture; conditions: for MIC ATB in combination: AF1 @ 4 μg/mL
Protocol: (§1) Method 2: MIC of Compounds Alone and Combined with Antibacterials Against Bacterial Isolates.
(§2) Compounds of the present invention were assessed against genotyped bacterial strains (Table 3, 4) alone or in combination with an antibacterial (Table 2). […] Log phase bacterial suspensions were adjusted to a final density of 5·10^5 CFU/mL in cation-adjusted Mueller-Hinton broth (ca-MHB; Becton-Dickinson and Company) and added to each well (98 μL). Microplates were incubated for 16-20 h at 35° C. in ambient air. The MIC of the compounds was defined as the lowest concentration of said compounds that prevented bacterial growth as read by visual inspection. The MIC of ATB at each compound concentration was defined as the lowest concentration of ATB that prevented bacterial growth as read by visual inspection.

[2] = system: Enterobacter aerogenes (EAE) isolates; experiment: MIC of compounds alone and combined with antibacterials, broth microdilution (CLSI)
Protocol: as §1, §2

[3] = system: Enterobacter cloacae (ECL) isolates; experiment: as above; conditions: for MIC: Enterobacter cloacae
Protocol: as §1, §2

Structure (SMILES): CC1(C)S[C@@H]2[C@H](NC(=O)[C@H](N)c3ccc(O)cc3)C(=O)N2[C@H]1C(=O)O [AMX, Amoxicillin]
- MIC [1]: 128 µg/mL
- MIC ATB in combination ([1]; PMI UFR82): 8 µg/mL
- MIC ATB in combination ([1]; PMI UFR120): <=0.25 μg/mL
- MIC ATB in combination ([1]; PMI UFR121): <=0.25 μg/mL
- MIC ATB in combination ([1]; PMI UFR122): <=0.25 μg/mL
- MIC ATB in combination ([1]; PMI UFR123): <=0.25 μg/mL
- MIC ATB in combination ([1]; PMI UFR124): <=0.25 μg/mL
- MIC ATB in combination ([1]; PMI UFR125): <=0.25 μg/mL
- MIC ATB in combination ([1]; PMI UFR126): 4 µg/mL
- MIC ATB in combination ([1]; PMI UFR127): 4 µg/mL
- MIC ATB in combination ([1]; PMI UFR129): 8 µg/mL
- MIC ATB in combination ([1]; PMI UFR130): 8 µg/mL
- MIC ATB in combination ([1]; PMI UFR237): 16 µg/mL
- MIC ([1]; Proteus mirabilis): > 128 µg/mL
- MIC ([1]; Proteus mirabilis, strain PMI UFR82 (CMY-2), ATB alone, read-out: MIC): 256 µg/mL
- MIC ([1]; Proteus mirabilis, strain PMI UFR120 (TEM-1, SHV-11, CTX-M-14), CLA @ 4 μg/ml+ ATB, read-out: MIC): 8 µg/mL
- MIC ([1]; Proteus mirabilis, strain PMI UFR121 (TEM-1, TEM-52), CLA @ 4 μg/ml+ ATB, read-out: MIC): 4 µg/mL
- MIC ([1]; Proteus mirabilis, strain PMI UFR122 (TEM-1, CTX-M-15), CLA @ 4 μg/ml+ ATB, read-out: MIC): 8 µg/mL
- MIC ([1]; Proteus mirabilis, strain PMI UFR123 (CTX-M-1), CLA @ 4 μg/ml+ ATB, read-out: MIC): 16 µg/mL
- MIC ([1]; Proteus mirabilis, strain PMI UFR125 (CTX-M-71), CLA @ 4 μg/ml+ ATB, read-out: MIC): 4 µg/mL
- MIC ([1]; Proteus mirabilis, strain PMI UFR126 (TEM-2, PER-1), CLA @ 4 μg/ml+ ATB, read-out: MIC): 16 µg/mL
- MIC ([1]; Proteus mirabilis, strain PMI UFR127 (VEB-1), CLA @ 4 μg/ml+ ATB, read-out: MIC): 32 µg/mL
- MIC ([1]; Proteus mirabilis, strain PMI UFR129 (TEM-1, VEB-6), CLA @ 4 μg/ml+ ATB, read-out: MIC): 2 µg/mL
- MIC ([1]; Proteus mirabilis, strain PMI UFR237 (VEB-6), CLA @ 4 μg/ml+ ATB, read-out: MIC): 4 µg/mL
- MIC [2]: >256 µg/mL
- MIC ATB in combination [2]: 128 µg/mL
- MIC ATB in combination ([2]; EAE UFR199, AF1 @ 4 μg/mL): 64 µg/mL
- MIC ATB in combination ([2]; EAE UFR201, AF1 @ 4 μg/mL): <=1 μg/mL
- MIC ATB in combination ([2]; EAE UFR202, AF1 @ 4 μg/mL): 64 µg/mL
- MIC ATB in combination ([2]; EAE UFR213, AF1 @ 4 μg/mL): 32 µg/mL
- MIC ([2]; Klebsiella aerogenes): > 128 µg/mL
- MIC ([2]; Klebsiella aerogenes, strain EAE 49469 (AmpC), ATB alone, read-out: MIC): > 1020 µg/mL
- MIC ([2]; Klebsiella aerogenes, strain EAE UFR201 (TEM-1, SHV-12, CTX-M-15), CLA @ 4 μg/ml+ ATB, read-out: MIC): 16 µg/mL
- MIC ATB in combination [3]: 128 µg/mL
- MIC ATB in combination ([3]; ECL 190408, AF1 @ 4 μg/mL): 8 µg/mL
- MIC ATB in combination ([3]; ECL 200138, AF1 @ 4 μg/mL): 256 µg/mL
- MIC ATB in combination ([3]; ECL 260033, AF1 @ 4 μg/mL): 256 µg/mL
- MIC ATB in combination ([3]; ECL 260253, AF1 @ 4 μg/mL): 256 µg/mL
- MIC ATB in combination ([3]; ECL 260323, AF1 @ 4 μg/mL): 256 µg/mL
- MIC ATB in combination ([3]; ECL UFR13, AF1 @ 4 μg/mL): 256 µg/mL
- MIC ATB in combination ([3]; ECL UFR70, AF1 @ 4 μg/mL): 64 µg/mL
- MIC ATB in combination ([3]; ECL UFR85, AF1 @ 4 μg/mL): 256 µg/mL
- MIC ATB in combination ([3]; ECL UFR194, AF1 @ 4 μg/mL): 256 µg/mL
- MIC ATB in combination ([3]; ECL UFR200, AF1 @ 4 μg/mL): 256 µg/mL
- MIC ([3]; ATB alone, strain ECL UFR197 (TEM-1, CTX-M-15, OXA-1, OXA-48)): > 128 µg/mL
- MIC ([3]; ATB alone, strain ECL UFR198 (TEM-1, SHV-12, CTX-M-15, DHA-1, OXA-1, OXA-48)): > 128 µg/mL
- MIC ([3]; ATB combined with CLA @ 4 μg/ml, strain ECL UFR197 (TEM-1, CTX-M-15, OXA-1, OXA-48)): > 128 µg/mL
- MIC ([3]; ATB combined with CLA @ 4 μg/ml, strain ECL UFR198 (TEM-1, SHV-12, CTX-M-15, DHA-1, OXA-1, OXA-48)): > 128 µg/mL
- MIC ([3]; strain ECL 2185D (OXA-163), ATB alone): > 256 µg/mL
- MIC ([3]; strain ECL 2185D (OXA-163), CLA @ 4 μg/ml+ ATB): > 128 µg/mL
- MIC ([3]; strain ECL 190310 (AmpC), ATB alone): > 256 µg/mL
- MIC ([3]; strain ECL 190310 (AmpC), CLA @ 4 μg/ml+ ATB): > 128 µg/mL
- MIC ([3]; strain ECL 190408 (TEM-1, CTX-M-15, OXA-1), ATB alone): > 256 µg/mL
- MIC ([3]; strain ECL 190408 (TEM-1, CTX-M-15, OXA-1), CLA @ 4 μg/ml+ ATB): > 128 µg/mL
- MIC ([3]; strain ECL 200138 (AmpC), ATB alone): > 256 µg/mL
- MIC ([3]; strain ECL 200138 (AmpC), CLA @ 4 μg/ml+ ATB): > 128 µg/mL
- MIC ([3]; strain ECL 200322 (TEM-1, CTX-M-15, OXA-1), ATB alone): > 256 µg/mL
- MIC ([3]; strain ECL 200322 (TEM-1, CTX-M-15, OXA-1), CLA @ 4 μg/ml+ ATB): > 128 µg/mL
- MIC ([3]; strain ECL 260033 (AmpC), ATB alone): > 256 µg/mL
- MIC ([3]; strain ECL 260033 (AmpC), CLA @ 4 μg/ml+ ATB): > 128 µg/mL
- MIC ([3]; strain ECL 260253 (TEM-1, KPC-3), ATB alone): > 256 µg/mL
- MIC ([3]; strain ECL 260253 (TEM-1, KPC-3), CLA @ 4 μg/ml+ ATB): > 128 µg/mL
- MIC ([3]; strain ECL 260323 (AmpC), ATB alone): > 256 µg/mL
- MIC ([3]; strain ECL 260323 (AmpC), CLA @ 4 μg/ml+ ATB): > 128 µg/mL
- MIC ([3]; strain ECL 260508 (TEM-1, CTX-M-15), ATB alone): > 256 µg/mL
- MIC ([3]; strain ECL 260508 (TEM-1, CTX-M-15), CLA @ 4 μg/ml+ ATB): > 128 µg/mL
- MIC ([3]; strain ECL NEM146383 (AmpC), ATB alone): > 256 µg/mL
- MIC ([3]; strain ECL NEM146383 (AmpC), CLA @ 4 μg/ml+ ATB): > 128 µg/mL
- MIC ([3]; strain ECL P99 (AmpC), ATB alone, read-out: MIC): > 1020 µg/mL
- MIC ([3]; strain ECL P99 (AmpC), CLA @ 4 μg/ml+ ATB): > 512 µg/mL
- MIC ([3]; strain ECL UFR12 (CTX-M-9, OXA-48), ATB alone): > 256 µg/mL
- MIC ([3]; strain ECL UFR12 (CTX-M-9, OXA-48), CLA @ 4 μg/ml+ ATB): > 128 µg/mL
- MIC ([3]; strain ECL UFR13 (TEM-1, SHV-12, CTX-M-9, OXA-48), ATB alone): > 256 µg/mL
- MIC ([3]; strain ECL UFR13 (TEM-1, SHV-12, CTX-M-9, OXA-48), CLA @ 4 μg/ml+ ATB): > 128 µg/mL
- MIC ([3]; strain ECL UFR14 (TEM-1, SHV-12, CTX-M-15, DHA-1, OXA-1, OXA-48), ATB alone): > 256 µg/mL
